These results are taken from ChEMBL document CHEMBL1154926, “Cyanolide A, a glycosidic macrolide with potent Molluscicidal activity from the Papua New Guinea cyanobacterium Lyngbya bouillonii” (J Nat Prod, 2010).

One data set relates to Biomphalaria glabrata. As to the kind of experiment: Molluscicidal activity against Biomphalaria glabrata after 24 hrs. It is filed as functional.
Data set [1] can be described thus: Toxicity in brine shrimp. It is filed as organism-based. The following applies: artemia, in vivo.
The subject of another data set is NCI-H460. As to the kind of experiment: Cytotoxicity against human H460 cells at 35 uM. It is filed as functional, cell-based.
In another data set the test system is N2a. As to the kind of experiment: Cytotoxicity against mouse Neuro2a cells at 35 uM. In kind it is functional, cell-based.

Take `CC[C@@H]1C[C@@H]2C[C@H](O[C@@H]3OC[C@@H](OC)[C@H](OC)[C@H]3OC)C(C)(C)[C@H](CC(=O)O[C@H](CC)C[C@@H]3C[C@H](O[C@@H]4OC[C@@H](OC)[C@H](OC)[C@H]4OC)C(C)(C)[C@H](CC(=O)O1)O3)O2` [CYANOLIDE A]: the values for the LC50 (in the data set with Biomphalaria glabrata; in data set [1]) were 1.2 µM and 10.8 µM, respectively. Besides, the Activity entry in the data set on NCI-H460 and in the data set with N2a was “Not toxic” each time.

By LC50 is commonly meant the concentration that kills 50% of the test population. The low end stands for a more lethal substance, the high end for a less lethal substance.
